Key:
rice plants [1] = assay: Example 5: rice plants stressed by foliar cyhalofop, field trial; type: in vivo; conditions: cyhalofop 1500 ml/ha, three days after application (FIG. 12A)
Procedure: (§1) To test the effect of foliar application of an inventive fermentation culture lysate composition on rice plants stressed by foliar application of the chemical herbicide cyhalofop, field trial(s) were conducted. Control fields (FIG. 11, A; FIG. 12A) were treated with herbicide formulation comprising cyhalofop (foliar application at 1500 ml/ha). Test fields (FIG. 11, B; FIG. 12B) were treated with a combination of the herbicide formulation comprising cyhalofop (foliar application at 1500 ml/ha) and fermentation culture lysate Composition B (foliar application at 500 ml/ha).

carpet weed = assay: Weed control in rice field trial: carpet weed; type: in vivo; conditions: visually rated 8 May
From the text: (§2) To further evaluate the performance of certain embodiments of the present disclosure, bacterial fermentation product of the present disclosure was applied in a common herbicide application program to test herbicide injury tolerance, weed control, grain yield and milling quality in rice. Experiments were established in a field of Crowley fine sandy loam soil (59% sand, […], 12% clay, 0.7% organic matter and pH 5.3). The field was cropped to rice for every third year for many years and was naturally infested with many weeds. Plots consisted of six 18-ft rows, spaced 7.5-in. between rows. The experiment was conducted as a randomized completed block design with four replications. The trial consisted of six treatments (see Table 12, below).
(§3) Rice of the variety Presidio was drill seeded at 70 lb/acre on 5 Apr. Seeds for treatments 2, 4, 5 and 6 were treated with Composition E at 2.3 oz product/CWT prior to planting. Compositions A and B were applied at 7 oz product/acre on 1 May (postemergence), 2 Jun (panicle differentiation, PD) and 19 Jun (boot), using a CO2 pressurized, hand-held sprayer equipped with a boom of three TeeJet 8002VS nozzles spaced 19-in. apart that traveled at 3 mph and delivered at 29 gal/acre at 40 psi. […]

broadleaf signalgrass = assay: Weed control in rice field trial: broadleaf signalgrass; type: in vivo; conditions: visually rated 8 May
From the text: as §2, §3

yellow nutsedge = assay: Weed control in rice field trial: yellow nutsedge; type: in vivo; conditions: visually rated 8 May
From the text: as §2, §3

[2] = system: rice of the variety Presidio; assay: Rice crop injury in herbicide application program, field trial; conditions: visually rated 8 May, 0 = no injury, 100 = complete plant death
From the text: as §2, §3

rice plants [3] = assay: Example 6: rice plants stressed by foliar profoxydim, field trial; type: in vivo; conditions: profoxydim 750 ml/ha, three days after application (FIG. 14A)
Procedure: To test the effect of foliar application of inventive fermentation culture lysate composition(s) on rice plants stressed by foliar application of the chemical herbicide profoxydim, field trial(s) were conducted. Control fields (FIG. 13, A; FIG. 14A) were treated with herbicide formulation comprising profoxydim (foliar application at 750 ml/ha). Test fields were treated with either (FIG. 13, B; FIG. 14B) a combination of (i) herbicide formulation comprising profoxydim (foliar application at 750 ml/ha) and (ii) fermentation culture lysate Composition B (foliar application at 500 ml/ha) or (FIG. 13, C; FIG. 14C) a combination of (i) herbicide formulation comprising profoxydim (foliar application at 750 ml/ha), (ii) fermentation culture lysate Composition B (foliar application at 500 ml/ha), and (iii) fermentation culture lysate Composition F (foliar application at 500 ml/ha).

rice seedlings = assay: Example 2: rice seedlings stressed by post-emergence halosulfuron, field trial; type: in vivo; conditions: halosulfuron post-emergence 1800 ml/ha, Composition E seed treatment 150 ml/100 kg seed where applied (FIGS. 7A, 7B)
Procedure: To test the effect of seed application of an inventive fermentation culture lysate composition on rice seedlings stressed by post-emergence application of the chemical herbicide halosulfuron, various field trial(s) were conducted. Control fields (FIGS. 6A, 7A) were treated with herbicide formulation comprising halosulfuron (post-emergence at 1800 ml/ha). Test fields (FIGS. 6B, 7B) included seedling treated with the herbicide formulation comprising halosulfuron (post-emergence at 1800 ml/ha) from seeds treated with fermentation culture lysate Composition E (seed treatment at 150 ml/100 kg seed) during planting.

rice plants [4] = assay: Example 3: rice plants stressed by foliar propanil, field trial; type: in vivo; conditions: propanil 4000 ml/ha, three days after application (FIG. 9A)
Procedure: as §1, with “propanil,” for “cyhalofop,”, “8,” for “11,”, “9A)” for “12A)”, “propanil” for “cyhalofop”, “4000” for “1500”, “9B)” for “12B)”

[5] = system: glyphosate-tolerant Palmer Amaranth; assay: Palmer Amaranth shoot and root weight, greenhouse conditions; type: in vivo, Amaranthus palmeri; conditions: two weeks after spraying
From the text: To test the effects of the inventive plant treatment product on weed survival in herbicide-tolerant Palmer Amaranth (Amaranthus palmeri) plants, the plant treatment product (Composition C+herbicide) or herbicide component (alone) were applied to weeds, in greenhouse conditions. […] The measurements of dry shoot mass and dry root mass were taken two weeks after spraying.

[6] = glyphosate 1.27 kg/ha, Composition C 1 liter/ha

In the case of `C[C@@H](Oc1ccc(Oc2ccc(C#N)cc2F)cc1)C(=O)O` [cyhalofop], the phytotoxicity symptoms (rice plants [1]) is reported as “showed phytotoxicity symptoms”.

With `CC1(C)CON(Cc2ccccc2Cl)C1=O` [clomazone PRE, clomazone] the “Weed Control (%) Carpet weed” value (carpet weed) was 0 c %, the “Weed Control (%) Broadleaf signalgrass” value (broadleaf signalgrass) was 90 b % and the “Weed Control (%) Yellow nutsedge” value (yellow nutsedge) was 0 b %. For the same compound, the “Crop injury (%)” value [2] was 5.0 d^y %.

For `CCCC(=NOCC(C)Oc1ccc(Cl)cc1)C1=C(O)CC(C2CCCSC2)CC1=O` (stereo not shown) [profoxydim], the phytotoxicity symptoms (rice plants [3]) was “showed phytotoxicity symptoms”.

`COc1cc(OC)nc(NC(=O)NS(=O)(=O)c2c(C(=O)O)c(Cl)nn2C)n1` [halosulfuron] was tested, and the “bleaching of rice seedlings” value (rice seedlings) was “caused bleaching”.

In the case of `CCC(=O)Nc1ccc(Cl)c(Cl)c1` [propanil], the phytotoxicity symptoms (rice plants [4]) is reported as “showed phytotoxicity symptoms”.

`O=C(O)CNCP(=O)(O)O` [Herbicide, glyphosate] was tested, and the “Palmer Amaranth root dry weight per plant” value [5, 6] was 0.768, the “Palmer Amaranth root fresh weight per plant” value [5, 6] was 4.70 and the “Palmer Amaranth shoot dry weight per plant” value [5, 6] was 5.31. For the same compound, the “Palmer Amaranth shoot fresh weight per plant” value [5, 6] was 15.0, the “Palmer Amaranth root dry weight, change vs Untreated Control” value [5] was −40.9% and the “Palmer Amaranth root fresh weight, change vs Untreated Control” value [5] was −51.3%. For the same compound, the “Palmer Amaranth shoot dry weight, change vs Untreated Control” value [5] was −7.01% and the “Palmer Amaranth shoot fresh weight, change vs Untreated Control” value [5] was −20.6%.

From US20220015371A1, “Compositions and Methods for Reducing Pesticide-Induced Plant Damage and Improving Plant Yield” (priority 2018, published 2022)
